Columns and labels:
Assay type in all cases: in vivo
[1] = tested on: Stellaria media; test: Herbicidal pre-emergence action, STEME; conditions: visual grading after ca. 3 weeks vs untreated controls
From the text: (§1) Seeds of mono- and dicotyledonous weed plants were sown in plastic pots (double sowings with one species of mono- and one species of dicotyledonous weed plants per pot), in sandy loam, and covered with soil. The compounds according to the invention, formulated in the form of wettable powders (WP) or as emulsifiable concentrates (EC), were applied to the surface of the covering soil as an aqueous suspension or as an emulsion, with the addition of 0.5% of an additive, at an application rate of 600 litres of water per hectare (converted). Following treatment, the pots were placed in a greenhouse and kept under optimum growth conditions for the test plants. The visual grading of the damage to the test plants is carried out after ca. 3 weeks in comparison to untreated controls (herbicidal effect in percent (%): 100% effect=plants have died, 0% effect=as control plants). Seeds of mono- and dicotyledonous weed plants were sown in plastic pots (double sowings with one species of mono- and one species of dicotyledonous weed plants per pot), in sandy loam, and covered with soil. The compounds according to the invention, formulated in the form of wettable powders (WP) or as emulsifiable concentrates (EC), were applied to the surface of the covering soil as an aqueous suspension or as an emulsion, with the addition of 0.5% of an additive, at an application rate of 600 litres of water per hectare (converted). Following treatment, the pots were placed in a greenhouse and kept under optimum growth conditions for the test plants. The visual grading of the damage to the test plants is carried out after ca. 3 weeks in comparison to untreated controls (herbicidal effect in percent (%): 100% effect=plants have died, 0% effect=as control plants).

[2] = tested on: Setaria viridis; test: Herbicidal pre-emergence action, SETVI; conditions: 1280 g/ha, visual grading after ca. 3 weeks vs untreated controls
From the text: Seeds of mono- and dicotyledonous weed plants were sown in plastic pots (double sowings with one species of mono- and one species of dicotyledonous weed plants per pot), in sandy loam, and covered with soil. The compounds according to the invention, formulated in the form of wettable powders (WP) or as emulsifiable concentrates (EC), were applied to the surface of the covering soil as an aqueous suspension or as an emulsion, with the addition of 0.5% of an additive, at an application rate of 600 litres of water per hectare (converted). Following treatment, the pots were placed in a greenhouse and kept under optimum growth conditions for the test plants. The visual grading of the damage to the test plants is carried out after ca. 3 weeks in comparison to untreated controls (herbicidal effect in percent (%): 100% effect=plants have died, 0% effect=as control plants).

[3] = tested on: Amaranthus retroflexus; test: Herbicidal pre-emergence action, AMARE; conditions: visual grading after ca. 3 weeks vs untreated controls
From the text: as §1

[4] = tested on: Poa annua; test: Herbicidal post-emergence action, POAAN; conditions: assessed visually after ca. 3 weeks vs untreated controls
From the text: (§2) Seeds of mono- and dicotyledonous weed plants were sown in plastic pots (double sowings with one species of mono- and one species of dicotyledonous weed plants per pot), in sandy loam, covered with soil and grown under controlled growth conditions. 2 to 3 weeks after sowing, the test plants were sprayed in the single-leaf stage. The compounds according to the invention, formulated in the form of wettable powders (WP) or as emulsifiable concentrates (EC), were sprayed onto the green plant parts as an aqueous suspension or as an emulsion, with the addition of 0.5% of an additive, at an application rate of 600 litres of water per hectare (converted). The test plants were placed in the greenhouse for ca. 3 weeks under optimum growth conditions, and then the effect of the preparations is assessed visually in comparison with untreated controls (herbicidal effect in percent (%): 100% effect=plants have died, 0% effect=as control plants). […]

[5] = tested on: Lolium rigidum; test: Herbicidal post-emergence action, LOLRI; conditions: 1280 g/ha, assessed visually after ca. 3 weeks vs untreated controls
From the text: as §2

[6] = tested on: Stellaria media; test: Herbicidal post-emergence action, STEME; conditions: assessed visually after ca. 3 weeks vs untreated controls
From the text: as §2

[7] = tested on: Poa annua; test: Herbicidal pre-emergence action, POAAN; conditions: visual grading after ca. 3 weeks vs untreated controls
From the text: as §1

[8] = tested on: Amaranthus retroflexus; test: Herbicidal post-emergence action, AMARE; conditions: assessed visually after ca. 3 weeks vs untreated controls
From the text: as §2

[9] = tested on: Matricaria inodora; test: Herbicidal post-emergence action, MATIN; conditions: assessed visually after ca. 3 weeks vs untreated controls
From the text: as §2

[10] = tested on: Lolium rigidum; test: Herbicidal pre-emergence action, LOLRI; conditions: 1280 g/ha, visual grading after ca. 3 weeks vs untreated controls
From the text: as §1

[11] = tested on: Matricaria inodora; test: Herbicidal pre-emergence action, MATIN; conditions: 1280 g/ha, visual grading after ca. 3 weeks vs untreated controls
From the text: as §1

[12] = tested on: Kochia scoparia; test: Herbicidal post-emergence action, KCHSC; conditions: 1280 g/ha, assessed visually after ca. 3 weeks vs untreated controls
From the text: as §2

[13] = tested on: Veronica persica; test: Herbicidal post-emergence action, VERPE; conditions: assessed visually after ca. 3 weeks vs untreated controls
From the text: as §2

[14] = tested on: Abutilon theophrasti; test: Herbicidal post-emergence action, ABUTH; conditions: 1280 g/ha, assessed visually after ca. 3 weeks vs untreated controls
From the text: as §2

[15] = tested on: Alopecurus myosuroides; test: Herbicidal post-emergence action, ALOMY; conditions: 1280 g/ha, assessed visually after ca. 3 weeks vs untreated controls
From the text: as §2

Structure (SMILES) | herbicidal effect STEME ([1]; 1280 g/ha) [%] | herbicidal effect AMARE ([3]; 1280 g/ha) [%] | herbicidal effect STEME ([6]; 320 g/ha) [%] | herbicidal effect STEME ([6]; 1280 g/ha) [%] | herbicidal effect POAAN ([7]; 1280 g/ha) [%] | herbicidal effect AMARE ([8]; 1280 g/ha) [%] | herbicidal effect MATIN ([9]; 1280 g/ha) [%] | herbicidal effect MATIN [11] [%] | herbicidal effect KCHSC [12] [%] | herbicidal effect VERPE ([13]; 1280 g/ha) [%] | other results
O=C(Nc1ncns1)c1cnccc1C(F)(F)F [Example I-001] | 100 | 100 | 100 | 100 | 100 | 90 | 100 | 100 |  |  | herbicidal effect STEME ([1]; 320 g/ha): 100%; herbicidal effect SETVI [2]: 90%; herbicidal effect AMARE ([3]; 320 g/ha): 100%; herbicidal effect POAAN ([4]; 320 g/ha): 100%; herbicidal effect POAAN ([4]; 1280 g/ha): 100%; herbicidal effect LOLRI [5]: 90%; herbicidal effect POAAN ([7]; 320 g/ha): 100%; herbicidal effect MATIN ([9]; 320 g/ha): 90%; herbicidal effect LOLRI [10]: 100%
COc1nccc(C(F)(F)F)c1C(=O)Nc1ncns1 [Example I-010] | 90 |  |  |  | 100 | 100 |  | 100 | 100 | 100 | herbicidal effect POAAN ([4]; 320 g/ha): 90%; herbicidal effect POAAN ([4]; 1280 g/ha): 90%; herbicidal effect AMARE ([8]; 320 g/ha): 100%; herbicidal effect LOLRI [10]: 100%; herbicidal effect VERPE ([13]; 320 g/ha): 100%
Cc1ccncc1C(=O)Nc1ncns1 [Example I-011] | 90 | 100 |  |  | 100 |  |  | 90 |  |  | herbicidal effect STEME ([1]; 320 g/ha): 90%; herbicidal effect POAAN ([7]; 320 g/ha): 90%
COc1nccc(C(C)C)c1C(=O)Nc1ncns1 [Example I-027] | 90 |  |  |  |  |  |  |  |  |  | 
O=C(Nc1nc(Br)ns1)c1cnccc1C(F)(F)F [Example I-014] |  |  | 90 | 100 |  | 100 | 100 |  | 90 | 100 | 
O=C(Nc1nc(C(F)(F)F)ns1)c1cnccc1C(F)(F)F [Example I-013] |  | 100 |  | 100 |  | 100 | 100 |  | 100 | 100 | herbicidal effect AMARE ([8]; 320 g/ha): 90%; herbicidal effect MATIN ([9]; 320 g/ha): 100%; herbicidal effect VERPE ([13]; 320 g/ha): 100%; herbicidal effect ABUTH [14]: 100%
Cc1nsc(NC(=O)c2c(C(F)(F)F)ccnc2F)n1 [Example I-008] | 90 | 90 | 90 | 100 |  | 100 |  |  |  | 90 | herbicidal effect ALOMY [15]: 90%
Cc1cc(F)ncc1C(=O)Nc1ncns1 [Example I-023] | 90 | 90 |  |  | 100 | 90 |  | 100 |  |  | 

Source: US20240349726A1, “SUBSTITUTED 1,2,4-THIADIAZOLYL NICOTINAMIDES, SALTS OR N-OXIDES THEREOF AND THEIR USE AS HERBICIDALLY ACTIVE SUBSTANCES” (Bayer Aktiengesellschaft, priority 2021, published 2024)
